Assay results reported in US20250215021A1, “SYSTEMS AND METHODS UTILIZING THERANOSTIC AGENTS FOR BPCT AND BNCT FOR TARGETED CANCER TREATMENT” (University of Virginia Patent Foundation, priority 2022, published 2025).

Test system: MCF-10A epithelial cells
Assay: Cell uptake in MCF-10A (normal cell control)
Type: cell-based
Conditions: all concentrations tested
Experimental: Referring now to FIGS. 6A-6B, after confirming the structure and purity of the compound, further biological evaluation was performed. Preferential cancer cell uptake was evaluated in human breast cancer cells MCF-7 compared with MCF-10A epithelial cells. […] The cancer cell uptake was also confirmed by confocal microscopy. The concentration and constitutional stability of the compound in cancer cells was established by lysing the MCF-7 incubated with 5 μM of compound for 4 hrs. […] Inherent toxicity of the compound to both normal and cancer cells was evaluated using HMCD and 1-amino-1-carbadodecaborate as controls.

CC1(C)C(/C=C/C2=C(Cl)C(=C/C=C3/N(CCCCCC(=O)O)c4ccccc4C3(C)C)/CCC2)=[N+](CCCCS(=O)(=O)[O-])c2ccccc21 [parent HMCD]
uptake in MCF-10A cells: no or poor uptake
